“And” between values parts separate entries of the source, which are not always exact repeats. Equal entries are not always repeated.
Tests used:
Test in all cases: trFRET binding kinome profiling
ACVR1 = ACVR1 (Homo sapiens, UniProt Q04771)
Method: (§1) JAK activity assays using isolated kinase domains in the presence of 0.1 mM ATP and trFRET kinome profiling were conducted as described previously (17).

ALK = ALK (Homo sapiens, UniProt Q9UM73)
Method: as §1

AMPK = target: AMPK
Method: as §1

Akt1 = Akt1 (Homo sapiens, UniProt P31749)
Akt1, sequence (P31749 whole entry, species assumed): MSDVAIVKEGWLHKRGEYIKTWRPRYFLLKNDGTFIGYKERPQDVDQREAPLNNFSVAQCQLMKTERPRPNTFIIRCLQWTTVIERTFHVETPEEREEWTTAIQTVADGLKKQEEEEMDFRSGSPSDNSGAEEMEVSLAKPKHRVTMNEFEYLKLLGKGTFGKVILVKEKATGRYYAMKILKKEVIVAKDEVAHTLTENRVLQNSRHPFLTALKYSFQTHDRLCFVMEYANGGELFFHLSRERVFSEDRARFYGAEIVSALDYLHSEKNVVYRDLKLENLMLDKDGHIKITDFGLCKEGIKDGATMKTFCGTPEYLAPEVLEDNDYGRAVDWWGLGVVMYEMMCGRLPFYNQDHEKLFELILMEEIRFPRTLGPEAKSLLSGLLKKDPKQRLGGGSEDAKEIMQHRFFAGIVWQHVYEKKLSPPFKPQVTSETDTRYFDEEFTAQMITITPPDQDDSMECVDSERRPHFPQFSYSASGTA
Method: as §1

BTK = BTK (Homo sapiens, UniProt Q06187)
Method: as §1

CDK7/Cyclin H/Mat1 = CDK7/Cyclin H/Mat1 (Homo sapiens, UniProt P50613)
Method: as §1

CDK8/Cyclin C = CDK8/Cyclin C (Homo sapiens, UniProt P49336)
CDK8/Cyclin C, sequence (P49336 whole entry, species assumed): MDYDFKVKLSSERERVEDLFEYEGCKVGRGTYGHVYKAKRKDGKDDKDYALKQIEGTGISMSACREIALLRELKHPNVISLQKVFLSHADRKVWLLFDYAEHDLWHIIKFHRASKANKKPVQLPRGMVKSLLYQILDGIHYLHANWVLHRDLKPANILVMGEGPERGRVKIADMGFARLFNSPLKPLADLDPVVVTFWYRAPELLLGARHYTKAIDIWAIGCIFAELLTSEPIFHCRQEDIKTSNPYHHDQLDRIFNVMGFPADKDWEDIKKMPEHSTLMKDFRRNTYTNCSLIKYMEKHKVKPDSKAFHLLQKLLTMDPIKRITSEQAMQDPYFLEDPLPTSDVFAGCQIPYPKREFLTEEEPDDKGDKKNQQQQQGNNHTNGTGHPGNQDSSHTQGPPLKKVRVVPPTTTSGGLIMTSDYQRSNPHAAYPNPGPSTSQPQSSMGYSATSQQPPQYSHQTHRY
CDK8/Cyclin C, sequence (P24863 whole entry partner, species assumed): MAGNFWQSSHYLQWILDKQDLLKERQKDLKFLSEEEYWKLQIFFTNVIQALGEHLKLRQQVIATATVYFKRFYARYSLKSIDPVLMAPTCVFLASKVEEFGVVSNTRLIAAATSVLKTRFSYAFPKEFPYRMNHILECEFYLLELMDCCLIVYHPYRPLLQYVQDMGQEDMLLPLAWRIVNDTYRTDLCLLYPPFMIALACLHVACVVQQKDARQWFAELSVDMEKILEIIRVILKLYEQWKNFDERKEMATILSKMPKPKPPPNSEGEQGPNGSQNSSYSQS
Method: as §1

CDK9/Cyclin K = CDK9/Cyclin K (Homo sapiens, UniProt P50750)
Method: as §1

CLK2 = CLK2 (Homo sapiens, UniProt P49760)
Method: as §1

CSF1R = CSF1R (Homo sapiens, UniProt P07333)
Method: as §1

Ck1alpha1 = Ck1alpha1 (Homo sapiens, UniProt P48729)
Method: as §1

DDR1 = DDR1 (Homo sapiens, UniProt Q08345)
Method: as §1

DYRK1A = DYRK1A (Homo sapiens, UniProt Q13627)
Method: as §1

EGFR = EGFR (Homo sapiens, UniProt P00533)
Method: as §1

FAK = FAK (Homo sapiens, UniProt Q05397)
Method: as §1

Flt1 = Flt1 (Homo sapiens, UniProt P17948)
Method: as §1

GRK5 = GRK5 (Homo sapiens, UniProt P34947)
Method: as §1

Gsk3a = Gsk3a (Homo sapiens, UniProt P49840)
Method: as §1

IGF1R = IGF1R (Homo sapiens, UniProt P08069)
Method: as §1

IKKE = IKKE (Homo sapiens, UniProt Q14164)
Method: as §1

InsR = InsR (Homo sapiens, UniProt P06213)
Method: as §1

JNK1 = JNK1 (Homo sapiens, UniProt P45983)
Method: as §1

KDR = KDR (Homo sapiens, UniProt P35968)
Method: as §1

MAP2K3 = MAP2K3 (Homo sapiens, UniProt P46734)
Method: as §1

MAP3K10 = MAP3K10 (Homo sapiens, UniProt Q02779)
Method: as §1

MAP4K4 = MAP4K4 (Homo sapiens, UniProt O95819)
Method: as §1

MEK1 = MEK1 (Homo sapiens, UniProt Q02750)
Method: as §1

MST1 = MST1 (Homo sapiens, UniProt Q13043)
Method: as §1

PAK4KD = target: T1, PAK4KD (Homo sapiens, UniProt O96013)
T1 construct: PAK4KD
Method: as §1

PDGFRB = PDGFRB (Homo sapiens, UniProt P09619)
Method: as §1

PKCtheta = PKCtheta (Homo sapiens, UniProt Q04759)
Method: as §1

PKG1A = PKG1A (Homo sapiens, UniProt Q13976)
Method: as §1

Pim1 = Pim1 (Homo sapiens, UniProt P11309)
Method: as §1

Pim2 = Pim2 (Homo sapiens, UniProt Q9P1W9)
Pim2, sequence (Q9P1W9 whole entry, species assumed): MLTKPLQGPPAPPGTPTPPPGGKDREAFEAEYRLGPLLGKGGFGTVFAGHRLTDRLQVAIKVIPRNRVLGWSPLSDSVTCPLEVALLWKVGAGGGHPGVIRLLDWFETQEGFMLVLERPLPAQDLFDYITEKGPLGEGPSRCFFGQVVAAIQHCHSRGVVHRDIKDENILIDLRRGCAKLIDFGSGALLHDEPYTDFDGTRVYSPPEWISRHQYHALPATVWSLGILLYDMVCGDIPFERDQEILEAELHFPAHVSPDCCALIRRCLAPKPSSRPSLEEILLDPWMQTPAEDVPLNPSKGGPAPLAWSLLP
Method: as §1

RET = RET (Homo sapiens, UniProt P07949)
Method: as §1

Rock1 = Rock1 (Homo sapiens, UniProt Q13464)
Rock1, sequence (Q13464 whole entry, species assumed): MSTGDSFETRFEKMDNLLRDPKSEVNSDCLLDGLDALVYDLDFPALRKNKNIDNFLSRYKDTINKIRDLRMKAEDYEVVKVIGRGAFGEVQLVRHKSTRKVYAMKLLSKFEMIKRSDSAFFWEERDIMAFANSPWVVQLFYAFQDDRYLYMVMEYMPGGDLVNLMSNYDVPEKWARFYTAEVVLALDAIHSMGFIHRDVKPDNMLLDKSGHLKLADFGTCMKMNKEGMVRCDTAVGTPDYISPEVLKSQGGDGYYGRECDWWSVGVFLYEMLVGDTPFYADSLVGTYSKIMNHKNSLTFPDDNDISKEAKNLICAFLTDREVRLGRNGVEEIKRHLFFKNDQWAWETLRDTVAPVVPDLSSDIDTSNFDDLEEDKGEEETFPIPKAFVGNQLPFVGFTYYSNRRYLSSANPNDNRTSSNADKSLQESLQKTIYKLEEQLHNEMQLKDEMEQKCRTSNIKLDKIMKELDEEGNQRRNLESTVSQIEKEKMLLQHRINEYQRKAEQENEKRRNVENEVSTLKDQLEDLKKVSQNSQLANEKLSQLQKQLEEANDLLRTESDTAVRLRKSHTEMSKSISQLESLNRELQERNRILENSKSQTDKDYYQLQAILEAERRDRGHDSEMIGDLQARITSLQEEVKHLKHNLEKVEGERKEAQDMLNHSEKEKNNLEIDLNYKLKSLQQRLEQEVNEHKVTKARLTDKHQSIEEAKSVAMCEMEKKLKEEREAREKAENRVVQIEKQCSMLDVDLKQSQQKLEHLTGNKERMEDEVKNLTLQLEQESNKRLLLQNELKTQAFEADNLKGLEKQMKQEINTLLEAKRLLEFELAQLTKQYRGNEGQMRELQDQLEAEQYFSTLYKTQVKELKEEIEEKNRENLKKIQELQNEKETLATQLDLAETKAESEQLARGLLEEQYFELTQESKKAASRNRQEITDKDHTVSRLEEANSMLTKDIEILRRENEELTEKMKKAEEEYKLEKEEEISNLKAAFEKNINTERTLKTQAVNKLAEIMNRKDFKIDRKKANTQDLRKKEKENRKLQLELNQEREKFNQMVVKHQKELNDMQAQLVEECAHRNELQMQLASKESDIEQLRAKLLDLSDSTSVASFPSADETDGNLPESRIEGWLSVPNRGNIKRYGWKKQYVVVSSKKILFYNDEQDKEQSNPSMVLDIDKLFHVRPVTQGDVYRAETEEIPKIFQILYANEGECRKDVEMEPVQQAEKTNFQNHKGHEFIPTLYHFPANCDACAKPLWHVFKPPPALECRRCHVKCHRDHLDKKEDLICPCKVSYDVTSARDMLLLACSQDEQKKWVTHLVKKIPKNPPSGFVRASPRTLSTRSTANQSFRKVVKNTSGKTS
Method: as §1

Rock2 = Rock2 (Homo sapiens, UniProt O75116)
Method: as §1

SGK1 = SGK1 (Homo sapiens, UniProt O00141)
Method: as §1

TAOK2 = TAOK2 (Homo sapiens, UniProt Q9UL54)
TAOK2, sequence (Q9UL54 whole entry, species assumed): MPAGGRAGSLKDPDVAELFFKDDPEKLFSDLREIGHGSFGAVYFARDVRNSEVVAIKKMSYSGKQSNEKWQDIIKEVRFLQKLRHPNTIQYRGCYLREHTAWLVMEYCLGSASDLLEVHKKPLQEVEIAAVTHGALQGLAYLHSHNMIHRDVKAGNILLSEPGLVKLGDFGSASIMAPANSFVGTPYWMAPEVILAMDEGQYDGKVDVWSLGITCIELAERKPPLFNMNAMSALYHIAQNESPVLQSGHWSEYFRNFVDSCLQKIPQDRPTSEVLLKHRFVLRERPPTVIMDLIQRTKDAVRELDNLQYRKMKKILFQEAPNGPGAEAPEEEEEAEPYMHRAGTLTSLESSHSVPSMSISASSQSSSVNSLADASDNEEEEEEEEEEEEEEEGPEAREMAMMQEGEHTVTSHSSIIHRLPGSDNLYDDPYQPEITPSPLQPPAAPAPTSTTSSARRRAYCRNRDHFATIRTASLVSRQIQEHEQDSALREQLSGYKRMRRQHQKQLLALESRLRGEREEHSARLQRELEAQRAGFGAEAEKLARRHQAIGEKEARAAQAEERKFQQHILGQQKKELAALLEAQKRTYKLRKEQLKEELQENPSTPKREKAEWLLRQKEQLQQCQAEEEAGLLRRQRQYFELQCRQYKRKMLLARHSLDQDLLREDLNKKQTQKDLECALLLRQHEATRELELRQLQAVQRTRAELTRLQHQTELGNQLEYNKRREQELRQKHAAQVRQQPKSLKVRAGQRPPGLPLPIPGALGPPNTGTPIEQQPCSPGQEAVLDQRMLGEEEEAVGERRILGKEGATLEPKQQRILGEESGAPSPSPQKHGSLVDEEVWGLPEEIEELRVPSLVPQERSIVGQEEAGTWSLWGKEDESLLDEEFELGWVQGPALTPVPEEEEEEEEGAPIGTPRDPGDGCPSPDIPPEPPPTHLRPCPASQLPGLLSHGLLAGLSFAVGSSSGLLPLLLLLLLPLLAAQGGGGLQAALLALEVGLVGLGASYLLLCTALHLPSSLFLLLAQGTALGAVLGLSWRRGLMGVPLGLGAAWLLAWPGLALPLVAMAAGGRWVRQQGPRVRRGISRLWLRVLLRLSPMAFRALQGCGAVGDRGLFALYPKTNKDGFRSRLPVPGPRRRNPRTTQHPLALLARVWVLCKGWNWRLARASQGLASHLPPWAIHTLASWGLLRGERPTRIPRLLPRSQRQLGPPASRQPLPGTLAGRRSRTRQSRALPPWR
Method: as §1

TNK2 = TNK2 (Homo sapiens, UniProt Q07912)
Method: as §1

TTK = TTK (Homo sapiens, UniProt P33981)
TTK, sequence (P33981 whole entry, species assumed): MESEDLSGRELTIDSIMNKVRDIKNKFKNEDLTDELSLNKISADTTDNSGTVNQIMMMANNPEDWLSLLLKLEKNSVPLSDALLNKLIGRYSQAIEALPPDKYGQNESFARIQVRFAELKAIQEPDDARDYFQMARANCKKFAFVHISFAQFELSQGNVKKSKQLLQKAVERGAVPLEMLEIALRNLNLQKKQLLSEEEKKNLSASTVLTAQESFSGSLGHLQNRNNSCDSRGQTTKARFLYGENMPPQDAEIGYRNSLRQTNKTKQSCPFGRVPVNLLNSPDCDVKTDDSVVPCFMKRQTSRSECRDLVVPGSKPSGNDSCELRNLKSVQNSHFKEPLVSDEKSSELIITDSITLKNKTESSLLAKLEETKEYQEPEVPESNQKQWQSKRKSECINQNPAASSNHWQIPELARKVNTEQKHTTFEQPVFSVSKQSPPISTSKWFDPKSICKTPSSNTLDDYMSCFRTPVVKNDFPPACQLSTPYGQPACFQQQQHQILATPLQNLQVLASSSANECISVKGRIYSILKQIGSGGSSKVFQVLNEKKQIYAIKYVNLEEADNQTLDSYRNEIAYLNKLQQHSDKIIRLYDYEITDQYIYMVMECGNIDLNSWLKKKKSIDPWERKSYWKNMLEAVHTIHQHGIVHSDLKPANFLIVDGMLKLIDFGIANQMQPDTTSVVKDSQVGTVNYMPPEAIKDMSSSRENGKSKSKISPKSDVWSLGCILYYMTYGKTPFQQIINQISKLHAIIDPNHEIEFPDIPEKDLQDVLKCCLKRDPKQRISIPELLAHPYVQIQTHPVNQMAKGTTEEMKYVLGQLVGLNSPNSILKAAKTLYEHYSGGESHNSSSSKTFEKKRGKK
Method: as §1

TrkA = TrkA (Homo sapiens, UniProt P04629)
Method: as §1

TrkB = TrkB (Homo sapiens, UniProt Q16620)
Method: as §1

TrkC = TrkC (Homo sapiens, UniProt Q16288)
Method: as §1

cMET = cMET (Homo sapiens, UniProt P08581)
Method: as §1

p38 alpha = p38 alpha (Homo sapiens, UniProt Q16539)
Method: as §1

Measured: IC50

CC[C@@H]1CN(C(=O)NCC(F)(F)F)C[C@@H]1c1cnc2cnc3[nH]ccc3n12 [upadacitinib, (3S,4R)-3-ethyl-4-(3H-imidazo [1,2-a]pyrrolo [2,3-e]pyrazin-8-yl)-N-(2,2,2-trifluoroethyl) pyrrolidine-1-carboxamide]
> 7.9 µM: GRK5
2.4 µM: RET
> 1.5 µM: KDR
< 1 µM: Rock2
> 4.5 µM: AMPK
> 5.5 µM: ALK
5.1 µM: PKCtheta | TNK2
< 1 µM and 0.92 µM: Rock1
> 10 µM: all other assays above

From paper PMC6390583 (BMC rheumatology, 2018)
